Patent publication US9751857B2, “Hepatitis B antiviral agents” (NOVIRA THERAPEUTICS, INC., priority 2011, dated 2017)

Legend:
[1] = molecular target: HBV C150Bo capsid protein (HBV CA protein) (Hepatitis B virus genotype D subtype adw, UniProt P03147, C107A/C48A/C61A/R150C); experiment: HBV assembly assay (fluorescence quenching in vitro assembly); format: biochemical; conditions: for Activity in HBV assembly assay: at 10 μM
[2] = tested on: HBV replication in HepG2-2.2.15 cells; experiment: Dot-blot assay of HBV replication; format: cell-based; conditions: Hepatitis B virus, 144 h
Protocol: Compounds active in the HBV assembly assay are tested for their activity and toxicity in cellular assay. In the first anti-viral assay, the ability of compounds to inhibit HBV replication in an HBV-producing hepatoma cell line using the dot-blot method is evaluated.
Briefly, confluent monolayers of HepG2-2.2.15 cells are incubated with complete medium containing various concentrations of a test compound. Three days later, the culture medium is replaced with fresh medium containing the appropriately diluted test compound. Six days following the initial administration of the test compound, the cell culture supernatant is collected, and cell lysis is performed. The samples are applied onto Nylos membranes and DNA is immobilized to the membrane by UV cross-linking. After pre-hybridization, the HBV probe is added and the hybridization is performed overnight. The membranes are exposed to the Kodak films; antiviral activity is calculated from the reduction in HBV DNA levels (EC50). The EC50 for antiviral activity is calculated from the dose response curves of active compounds.
In the first anti-viral assay, the ability of compounds to inhibit HBV replication in an HBV-producing hepatoma cell line using the dot-blot method was evaluated.
Confluent monolayers of HepG2-2.2.15 cells were incubated with complete medium containing various concentrations of a test compound. Three days later, the culture medium was replaced with fresh medium containing the appropriately diluted test compound. Six days following the initial administration of the test compound, the cell culture supernatant was collected, and cell lysis was performed. The samples were applied onto Nylos membranes and DNA was immobilized to the membrane by UV cross-linking. After pre-hybridization, the HBV probe was added and the hybridization was performed overnight. The membranes were exposed to the Kodak films; antiviral activity was calculated from the reduction in HBV DNA levels (EC50). The EC50 for antiviral activity was calculated from the dose response curves of active compounds. […]

Sequence of HBV C150Bo capsid protein (HBV CA protein) (P03147 1-150 C48A/C61A/C107A/R150C): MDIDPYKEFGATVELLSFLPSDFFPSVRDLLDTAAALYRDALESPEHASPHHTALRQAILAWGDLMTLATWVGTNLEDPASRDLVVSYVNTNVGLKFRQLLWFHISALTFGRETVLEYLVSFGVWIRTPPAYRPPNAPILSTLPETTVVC

Structure (SMILES)	Activity in HBV assembly assay [1]	inhibition at 10 µM [2] [%]	EC50 in HBV assembly assay ([1]; control compounds)
O=C(Nc1cc(F)c(F)c(F)c1)c1ccc(F)c(S(=O)(=O)N2CCC(O)C(F)C2)c1 (single isomer, unassigned) [960D1]	+ (‘+’ indicates >50% activity at 10 μM)	> 50	–
O=C(Nc1cc(F)c(F)c(F)c1)c1ccc(F)c(S(=O)(=O)N2CCC(O)C(F)C2)c1 (single isomer, unassigned) [960D2]	+ (‘+’ indicates >50% activity at 10 μM)	–	–
CC1CN(S(=O)(=O)c2cccc(C(=O)Nc3cc(F)c(F)c(F)c3)c2)CCC1O (centres unmarked) [610D2]	+ (‘+’ indicates >50% activity at 10 μM)	> 50	–
O=C(Nc1ccc(F)c(C(F)F)c1)c1cccc(S(=O)(=O)N2CCCC2CO)c1 (centres unmarked) [677R]	+ (‘+’ indicates >50% activity at 10 μM)	> 50	–
O=C(Nc1ccc(F)c(Cl)c1)c1cccc(S(=O)(=O)N2CCC(O)C(Cc3ccccc3)C2)c1 (centres unmarked) [713D2]	+ (‘+’ indicates >50% activity at 10 μM)	> 50	–
O=C(Nc1ccc(F)c(Cl)c1)c1cccc(S(=O)(=O)N2CCC(O)C(CO)C2)c1 (centres unmarked) [719D1]	+ (‘+’ indicates >50% activity at 10 μM)	> 50	–
O=C(Nc1ccc(F)c(Cl)c1)c1cccc(S(=O)(=O)N2CCC(CO)C(O)C2)c1 (centres unmarked) [725D1]	+ (‘+’ indicates >50% activity at 10 μM)	> 50	–
CC1CN(S(=O)(=O)c2cccc(C(=O)Nc3cc(F)c(F)c(F)c3)c2)CCC1CCO (centres unmarked) [743D1]	+ (‘+’ indicates >50% activity at 10 μM)	> 50	–
O=C(Nc1ccc(F)c(C(F)F)c1)c1cccc(S(=O)(=O)N2CCC(O)C(F)C2)c1 (centres unmarked) [820D2]	+ (‘+’ indicates >50% activity at 10 μM)	> 50	–
O=C(Nc1cc(F)c(F)c(C(F)F)c1)c1cccc(S(=O)(=O)N2CCC(O)C(F)C2)c1 (centres unmarked) [824D2]	+ (‘+’ indicates >50% activity at 10 μM)	> 50	–
O=C(Nc1ccc(F)c(Br)c1)c1cccc(S(=O)(=O)NC2CCCC(O)C2)c1 (centres unmarked) [867D2]	+ (‘+’ indicates >50% activity at 10 μM)	> 50	–
O=C(Nc1cc(F)c(F)c(F)c1)c1ccc(F)c(S(=O)(=O)C2CCC(CO)C(O)C2)c1 (centres unmarked) [946D2]	+ (‘+’ indicates >50% activity at 10 μM)	> 50	–
O=C(Nc1ccc(F)c(Cl)c1)c1ccc(F)c(S(=O)(=O)N2CCC(CO)C(O)C2)c1 (centres unmarked) [955D1]	+ (‘+’ indicates >50% activity at 10 μM)	> 50	–
O=C(Nc1ccc(F)c(Cl)c1)c1ccc(F)c(S(=O)(=O)N2CCC(CO)C(O)C2)c1 (centres unmarked) [955D2]	+ (‘+’ indicates >50% activity at 10 μM)	–	–
O=C(Nc1ccc(F)c(Cl)c1)c1ccc(Cl)c(S(=O)(=O)N2CCCC2CO)c1 (centres unmarked) [1094S]	+ (‘+’ indicates >50% activity at 10 μM)	> 50	–
O=C(Nc1ccc(F)c(Cl)c1)c1cc(S(=O)(=O)NC2CC(O)C2)ccc1Cl (centres unmarked) [1134CT2]	+ (‘+’ indicates >50% activity at 10 μM)	> 50	–
O=C(Nc1cc(F)c(F)c(Cl)c1)c1ccc(F)c(S(=O)(=O)N2CCC(O)C(F)C2)c1 (centres unmarked) [1135D1]	+ (‘+’ indicates >50% activity at 10 μM)	> 50	–
O=C(Nc1cc(F)c(F)c(F)c1)c1cc(S(=O)(=O)NC2CC(O)C2)c(F)cc1Cl (centres unmarked) [1374CT1]	+ (‘+’ indicates >50% activity at 10 μM)	> 50	–
O=C(Nc1cc(F)c(F)c(F)c1)c1cc(S(=O)(=O)NC2CC(O)C2)c(F)cc1Cl (centres unmarked) [1374CT2]	+ (‘+’ indicates >50% activity at 10 μM)	–	–
O=C(Nc1ccc(F)c(F)c1)c1cc(S(=O)(=O)NC2CC(O)C2)c(F)cc1Cl (centres unmarked) [1378CT2]	+ (‘+’ indicates >50% activity at 10 μM)	> 50	–
COC(=O)C1=C(C)NC(c2ccccn2)=NC1c1ccc(F)cc1Cl (centres unmarked) [HAP-1, reference compound]	–	–	consistent with the literature
O=C(Nc1cccc(Br)c1)c1cccc(S(=O)(=O)N2CCC(CO)CC2)c1 [compound 065]	+ (‘+’ indicates >50% activity at 10 μM)	> 50	–
O=C(Nc1cccc(Br)c1)c1cccc(S(=O)(=O)N2CC(O)C2)c1 [compound 078]	+ (‘+’ indicates >50% activity at 10 μM)	> 50	–

Structure (SMILES)	Activity in HBV assembly assay [1]	inhibition at 10 µM [2] [%]	EC50 in HBV assembly assay ([1]; control compounds)
CN(CCO)S(=O)(=O)c1cccc(C(=O)Nc2cccc(Br)c2)c1 [compound 079]	+ (‘+’ indicates >50% activity at 10 μM)	> 50	–
CC(=O)N1CCN(S(=O)(=O)c2cccc(C(=O)Nc3cccc(Br)c3)c2)CC1 [compound 119]	+ (‘+’ indicates >50% activity at 10 μM)	> 50	–
CCCC(=O)N1CCN(S(=O)(=O)c2cccc(C(=O)Nc3cccc(Br)c3)c2)CC1 [compound 121]	+ (‘+’ indicates >50% activity at 10 μM)	> 50	–
O=C(Nc1cccc(Br)c1)c1cccc(S(=O)(=O)N2CCN(c3ccncc3)CC2)c1 [compound 126]	+ (‘+’ indicates >50% activity at 10 μM)	> 50	–
O=C(Nc1cccc(Br)c1)c1cccc(S(=O)(=O)N2CCN(C(=O)C3(O)CC3)CC2)c1 [compound 129]	+ (‘+’ indicates >50% activity at 10 μM)	> 50	–
Cc1cc(NC(=O)c2cccc(S(=O)(=O)N3CCN(C(=O)C4CC4)CC3)c2)ccc1F [compound 148]	+ (‘+’ indicates >50% activity at 10 μM)	> 50	–
COC1CN(S(=O)(=O)c2cccc(C(=O)Nc3cccc(Cl)c3)c2)C1 [compound 191]	+ (‘+’ indicates >50% activity at 10 μM)	> 50	–
O=C(Nc1ccc(F)c(Cl)c1)c1cccc(S(=O)(=O)N2CCCC2CO)c1 (centres unmarked) [compound 208]	+ (‘+’ indicates >50% activity at 10 μM)	> 50	–
O=C(Nc1cc(F)c(F)c(F)c1)c1cccc(S(=O)(=O)N2CCC(CO)CC2)c1 [compound 258]	+ (‘+’ indicates >50% activity at 10 μM)	> 50	–
O=C(Nc1cc(F)c(F)c(F)c1)c1cccc(S(=O)(=O)N2CCC(O)CC2)c1 [compound 318]	+ (‘+’ indicates >50% activity at 10 μM)	> 50	–
CN(CCO)S(=O)(=O)c1cccc(C(=O)Nc2ccc(F)cc2)c1 [compound 332]	+ (‘+’ indicates >50% activity at 10 μM)	> 50	–
CN(CC(O)CO)S(=O)(=O)c1cccc(C(=O)Nc2cccc(Cl)c2)c1 (centres unmarked) [compound 366]	+ (‘+’ indicates >50% activity at 10 μM)	> 50	–
O=C(Nc1ccc(F)c(Br)c1)c1cccc(S(=O)(=O)N2CC(O)C2)c1 [compound 407]	+ (‘+’ indicates >50% activity at 10 μM)	> 50	–
N#Cc1cc(NC(=O)c2cccc(S(=O)(=O)N3CCC(O)CC3)c2)ccc1F [compound 419]	+ (‘+’ indicates >50% activity at 10 μM)	> 50	–
Cc1cc(NC(=O)c2cccc(S(=O)(=O)N3CCC(C)(CO)CC3)c2)ccc1F [compound 478]	+ (‘+’ indicates >50% activity at 10 μM)	> 50	–
O=C(Nc1ccc(F)c(Cl)c1)c1cccc(S(=O)(=O)N2CCC(O)(CO)CC2)c1 [compound 501]	+ (‘+’ indicates >50% activity at 10 μM)	> 50	–
O=C(Nc1ccc(F)c(Cl)c1)c1cccc(S(=O)(=O)N2CCC(O)(c3ccccc3)CC2)c1 [compound 541]	+ (‘+’ indicates >50% activity at 10 μM)	> 50	–
O=C(Nc1ccc(F)c(Cl)c1)c1cccc(S(=O)(=O)N2CCC(CO)(Cc3ccccc3)CC2)c1 [compound 553]	+ (‘+’ indicates >50% activity at 10 μM)	> 50	–
O=C(Nc1cc(F)c(F)c(Cl)c1)c1cccc(S(=O)(=O)N2CCC(O)CC2)c1 [compound 595]	+ (‘+’ indicates >50% activity at 10 μM)	> 50	–
O=C(Nc1ccc(F)c(CF)c1)c1cccc(S(=O)(=O)N2CC(O)C2)c1 [compound 646]	+ (‘+’ indicates >50% activity at 10 μM)	> 50	–
O=C(Nc1ccc(F)c(Br)c1)c1cccc(S(=O)(=O)N2CCC(O)(CO)CC2)c1 [compound 758]	+ (‘+’ indicates >50% activity at 10 μM)	> 50	–
O=C(Nc1cc(F)c(F)c(F)c1)c1cccc(S(=O)(=O)N2CCC(O)(c3ccc(F)cc3)CC2)c1 [compound 765]	+ (‘+’ indicates >50% activity at 10 μM)	> 50	–
